From patent publication US20050234125A1, “Alpha-sulfonylamino-acetonitriles” (priority 2002, published 2005)

melting point	Structure (SMILES)
120 to 121 °C	CC(C#N)(COc1ccc(Cl)cc1)NS(=O)(=O)Cc1ccccc1 (centres unmarked)
119 to 120 °C	CC(C#N)(COc1ccc(Cl)cc1)S(=O)(=O)Cc1ccc(Cl)cc1 (centres unmarked)
